From PMC8745369, “Discovery of 2,4-thiazolidinedione-tethered coumarins as novel selective inhibitors for carbonic anhydrase IX and XII isoforms” (Journal of Enzyme Inhibition and Medicinal Chemistry, 2022) come the findings set out here.

SMILES strings stand for the structures. A value given as a limit tells only on which side of the number the result lay.

The target of one data set is hCA IX (Homo sapiens, UniProt Q16790). In words: Stopped flow CO2 hydrase assay, hCA IX inhibition. The conditions noted are these: stopped flow technique; incubation time of 6 h; mean from 3 different assays; read-out: KI CA IX. It is filed as biochemical.
Another data set has as its target hCA I (Homo sapiens, UniProt P00915). In words: Stopped flow CO2 hydrase assay, hCA I inhibition. It is filed as biochemical. The conditions noted are these: stopped flow technique; incubation time of 6 h; mean from 3 different assays; read-out: KI CA I.
In a further data set the target is hCA II (Homo sapiens, UniProt P00918). In words: Stopped flow CO2 hydrase assay, hCA II inhibition. It is filed as biochemical. The conditions noted are these: stopped flow technique; incubation time of 6 h; mean from 3 different assays; read-out: KI CA II.
In another data set the target is hCA XII (Homo sapiens, UniProt O43570). In words: Stopped flow CO2 hydrase assay, hCA XII inhibition. It is filed as biochemical. The conditions noted are these: for Ki: stopped flow technique, incubation time of 6 h, mean from 3 different assays, read-out: KI CA XII.
For data set [1], the system named is MCF-7 breast cancer cell line. In words: MTT antiproliferative assay under hypoxic conditions. It is filed as cell-based. The conditions noted are these: Homo sapiens, MCF7, hypoxic conditions (CoCl2), 48 h exposure, mean ± SD of three experiments. The procedure:
2. Anti-proliferative action toward human breast cell line
The examined human breast cancer cell line (MCF-7) has been obtained from American Type Culture Collection (ATCC). Cells line was maintained as monolayers in Dulbecco’s Modified Eagle’s Medium (DMEM) supplemented with 10% FBS, 2 mM L-glutamine, 100 U/ml penicillin and 100µg/ml streptomycin sulfate. Cobalt (II) chloride (CoCl2) was utilized as an inducer of HIF-1α to furnish a chemically-induced hypoxia. Cells were sub-cultured with trypsine /EDTA solution, counted with haemocytometer and plated onto 96-well plates (5000 cells/well) and left overnight to form a semi-confluent monolayer. Cell monolayers were treated in quadrates with […]
for an exposure time of 48 h. At the end of exposure, MTT solution in PBS (5 mg/ml) was then added to all well including no cell blank and left to incubate for 90 min. The formation of formazan crystals were visually confirmed using phase contract microscopy. DMSO (100 µl/well) was added to dissolve the formazan crystals with shaking for 10 min after which the absorbance was read at […]
Background: Formazan colour is commonly taken as a measure of viable cells.

Chain of hCA XII (O43570 25-354): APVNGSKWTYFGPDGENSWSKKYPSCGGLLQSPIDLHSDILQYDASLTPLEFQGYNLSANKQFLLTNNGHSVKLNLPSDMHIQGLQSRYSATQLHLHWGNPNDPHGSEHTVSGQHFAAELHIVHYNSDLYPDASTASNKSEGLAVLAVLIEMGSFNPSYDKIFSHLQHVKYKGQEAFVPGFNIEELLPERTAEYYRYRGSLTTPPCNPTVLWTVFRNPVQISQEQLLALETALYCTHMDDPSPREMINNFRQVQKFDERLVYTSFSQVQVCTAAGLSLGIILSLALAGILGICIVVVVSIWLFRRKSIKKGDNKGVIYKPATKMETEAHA
Chain of hCA I (P00915 whole entry): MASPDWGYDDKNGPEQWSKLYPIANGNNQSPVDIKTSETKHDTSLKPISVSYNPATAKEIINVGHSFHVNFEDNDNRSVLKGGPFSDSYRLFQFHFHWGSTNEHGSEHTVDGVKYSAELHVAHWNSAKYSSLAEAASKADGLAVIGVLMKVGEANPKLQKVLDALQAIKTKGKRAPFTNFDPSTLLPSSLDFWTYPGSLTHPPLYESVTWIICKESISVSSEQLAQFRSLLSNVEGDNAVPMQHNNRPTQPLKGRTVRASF

As for `O=C(CN1C(=O)CSC1=O)c1cc2ccccc2oc1=O` [5a, 3–(2-Oxo-2–(2-oxo-2H-chromen-3-yl)ethyl)thiazolidine-2,4-dione], the Ki at hCA IX was 0.12 µM; at hCA I, over 100 µM; on hCA II it was over 100 µM; on hCA XII, 0.15 µM.

`O=C(CN1C(=O)CSC1=O)c1cc2cc(Br)ccc2oc1=O` [5b, 3–(2-(6-Bromo-2-oxo-2H-chromen-3-yl)-2-oxoethyl)thiazolidine-2,4-dione] registered a melting point of 239 to 241 °C. Moreover, the Ki on hCA IX stood at 0.24 µM. Further, the Ki at hCA I was over 100 µM. Also, the Ki on hCA II is over 100 µM. Also, the “diminished inhibition for hCA XII relative to the unsubstituted analogue 5a” value at hCA XII (ratio of KI values) is listed as 2 fold. For the same compound, at hCA XII, the Ki amounted to 0.31 µM.

On to `O=C(CN1C(=O)SC(=Cc2ccccc2)C1=O)c1cc2ccccc2oc1=O` [10a, 5-Benzylidene-3–(2-oxo-2–(2-oxo-2H-chromen-3-yl)ethyl)thiazolidine-2,4-dione], for which the melting point lay in the range of 249 to 251 °C. In data set [1], the IC50 was determined as 3.13 ± 0.18 µM. Moreover, the Ki on hCA IX turned out to be 0.82 µM. The Ki on hCA I is over 100 µM. Also, the inhibition constant (Ki) at hCA II is over 100 µM. Further, the Ki at hCA XII came to 0.75 µM.

Consider `Cc1ccc(C=C2SC(=O)N(CC(=O)c3cc4ccccc4oc3=O)C2=O)cc1` [10b, 5–(4-Methylbenzylidene)-3–(2-oxo-2–(2-oxo-2H-chromen-3-yl)ethyl)thiazolidine-2,4-dione], for which the melting point lay within 227 to 229 °C. Further, the Ki at hCA IX was found to be 4.3 µM. In addition, the Ki at hCA I is over 100 µM. Further, the Ki on hCA II was over 100 µM. Moreover, the Ki at hCA XII was determined as 4 µM.

`COc1ccc(C=C2SC(=O)N(CC(=O)c3cc4ccccc4oc3=O)C2=O)cc1` [10c, 5–(4-Methoxybenzylidene)-3–(2-oxo-2–(2-oxo-2H-chromen-3-yl)ethyl)thiazolidine-2,4-dione]: the melting point is 257 to 259 °C. Besides, the Ki at hCA IX was 5.8 µM. Besides, at hCA I, the Ki is over 100 µM. Further, at hCA II, the Ki is over 100 µM. Also, the Ki on hCA XII amounted to 4.5 µM.

The compound `COc1ccc(OC)c(C=C2SC(=O)N(CC(=O)c3cc4ccccc4oc3=O)C2=O)c1` [10d, 5–(2,5-Dimethoxybenzylidene)-3–(2-oxo-2–(2-oxo-2H-chromen-3-yl)ethyl)thiazolidine-2,4-dione] had a melting point of 238 to 240 °C. Also, on hCA IX, the Ki was 8.4 µM. In addition, on hCA I, the Ki was over 100 µM. Besides, the Ki at hCA II is over 100 µM. Also, the Ki on hCA XII was 6.2 µM.

The compound `O=C(CN1C(=O)SC(=Cc2ccc([N+](=O)[O-])cc2)C1=O)c1cc2ccccc2oc1=O` [10e, 5–(4-Nitrobenzylidene)-3–(2-oxo-2–(2-oxo-2H-chromen-3-yl)ethyl)thiazolidine-2,4-dione] showed a melting point of 263 to 265 °C. Besides, at hCA IX, the Ki came to 12.3 µM. In addition, the Ki at hCA I was over 100 µM. The Ki on hCA II is over 100 µM. Also, at hCA XII, the Ki turned out to be 8 µM.

Compound `O=C(CN1C(=O)SC(=Cc2ccccc2Cl)C1=O)c1cc2ccccc2oc1=O` [10f, 5–(2-Chlorobenzylidene)-3–(2-oxo-2–(2-oxo-2H-chromen-3-yl)ethyl)thiazolidine-2,4-dione] had a melting point of 208 to 211 °C. Moreover, on hCA IX, the Ki amounted to 2.2 µM. The Ki on hCA I was over 100 µM. For the same compound, the Ki at hCA II was over 100 µM. Moreover, the Ki at hCA XII turned out to be 3.8 µM.

In the case of `O=C(CN1C(=O)SC(=Cc2ccccc2Br)C1=O)c1cc2ccccc2oc1=O` [10g, 5–(2-Bromobenzylidene)-3–(2-oxo-2–(2-oxo-2H-chromen-3-yl)ethyl)thiazolidine-2,4-dione], the melting point lay in the range of 230 to 232 °C. The Ki at hCA IX was 2.3 µM. For the same compound, the Ki at hCA I is over 100 µM. Also, the Ki at hCA II was over 100 µM. Also, the Ki on hCA XII was 4.1 µM.

`O=C(CN1C(=O)SC(=Cc2ccccc2)C1=O)c1cc2cc(Br)ccc2oc1=O` [10h, 5-Benzylidene-3–(2-(6-bromo-2-oxo-2H-chromen-3-yl)-2-oxoethyl)thiazolidine-2,4-dione] returned a melting point of 252 to 254 °C. This compound displayed an IC50 in data set [1] of 11.1 ± 0.65 µM. Besides, the Ki on hCA IX was found to be 0.93 µM. For the same compound, at hCA I, the Ki was over 100 µM. Also, the Ki at hCA II was over 100 µM. Moreover, on hCA XII, the Ki was found to be 0.87 µM.

With `Cc1ccc(C=C2SC(=O)N(CC(=O)c3cc4cc(Br)ccc4oc3=O)C2=O)cc1` [10i, 3–(2-(6-Bromo-2-oxo-2H-chromen-3-yl)-2-oxoethyl)-5–(4-methylbenzylidene)thiazolidine-2,4-dione], the melting point was in the range of 224 to 225 °C. Moreover, the Ki on hCA IX stood at 6.2 µM. Further, the Ki on hCA I is over 100 µM. On hCA II, the Ki was over 100 µM. The Ki on hCA XII was found to be 2.3 µM.

In turn, `COc1ccc(C=C2SC(=O)N(CC(=O)c3cc4cc(Br)ccc4oc3=O)C2=O)cc1` [10j, 3–(2-(6-Bromo-2-oxo-2H-chromen-3-yl)-2-oxoethyl)-5–(4-methoxybenzylidene)thiazolidine-2,4-dione] registered a melting point of 245 to 247 °C. For the same compound, the Ki at hCA IX is 8.9 µM. On hCA I, the Ki was over 100 µM. For the same compound, on hCA II, the Ki was over 100 µM. Also, the Ki at hCA XII was 4.9 µM.

Compound `COc1ccc(OC)c(C=C2SC(=O)N(CC(=O)c3cc4cc(Br)ccc4oc3=O)C2=O)c1` [10k, 3–(2-(6-Bromo-2-oxo-2H-chromen-3-yl)-2-oxoethyl)-5–(2,5-dimethoxybenzylidene) thiazolidine-2,4-dione] yielded a melting point of 204 to 206 °C. Moreover, at hCA IX, the Ki was 16.4 µM. At hCA I, the Ki was over 100 µM. The Ki at hCA II was over 100 µM. Moreover, the Ki on hCA XII is 6.6 µM.

For the compound `O=C(CN1C(=O)SC(=Cc2ccc([N+](=O)[O-])cc2)C1=O)c1cc2cc(Br)ccc2oc1=O` [10l, 3–(2-(6-Bromo-2-oxo-2H-chromen-3-yl)-2-oxoethyl)-5–(4-nitrobenzylidene)thiazolidine-2,4-dione], the melting point lay within 229 to 231 °C. In addition, at hCA IX, the Ki amounted to 18.2 µM. For the same compound, the Ki at hCA I is over 100 µM. Also, the Ki on hCA II was over 100 µM. The Ki at hCA XII came to 10.4 µM.

In the case of `O=C(CN1C(=O)SC(=Cc2ccccc2Cl)C1=O)c1cc2cc(Br)ccc2oc1=O` [10m, 3–(2-(6-Bromo-2-oxo-2H-chromen-3-yl)-2-oxoethyl)-5–(2-chlorobenzylidene)thiazolidine-2,4-dione], the melting point was 192 to 194 °C. Moreover, the Ki on hCA IX turned out to be 2.9 µM. Further, the Ki at hCA I was over 100 µM. Moreover, at hCA II, the Ki is over 100 µM. For the same compound, at hCA XII, the Ki amounted to 3.2 µM.

The compound `O=C(CN1C(=O)SC(=Cc2ccccc2Br)C1=O)c1cc2cc(Br)ccc2oc1=O` [10n, 3–(2-(6-Bromo-2-oxo-2H-chromen-3-yl)-2-oxoethyl)-5–(2-bromobenzylidene)thiazolidine-2,4-dione] had a melting point of 208 to 210 °C. Further, the Ki on hCA IX was found to be 3.4 µM. Besides, the Ki on hCA I is over 100 µM. Further, at hCA II, the Ki was over 100 µM. The Ki at hCA XII came to 2.8 µM.

For the compound `Cc1ccc(C=C2SC(=O)N(CC(=O)c3cc4ccccc4oc3=O)C2=O)o1` [11b, 5-((5-Methylfuran-2-yl)methylene)-3–(2-oxo-2–(2-oxo-2H-chromen-3-yl)ethyl)thiazolidine-2,4-dione], the melting point lay within 227 to 229 °C. The same compound displayed an IC50 in data set [1] of 4.14 ± 0.24 µM. The Ki on hCA IX amounted to 0.79 µM. For the same compound, the Ki on hCA I is over 100 µM. Further, the Ki on hCA II is over 100 µM. Also, on hCA XII, the Ki was found to be 1.1 µM.

For the compound `O=C(CN1C(=O)SC(=Cc2cccs2)C1=O)c1cc2cc(Br)ccc2oc1=O` [11c, 3–(2-(6-Bromo-2-oxo-2H-chromen-3-yl)-2-oxoethyl)-5-(thiophen-2-ylmethylene)thiazolidine-2,4-dione], the melting point is 255 to 257 °C. 9.56 ± 0.56 µM corresponded to half-maximal inhibition in data set [1] (IC50). For the same compound, the Ki on hCA IX came out at 0.59 µM. Besides, the Ki on hCA I was over 100 µM. Further, at hCA II, the Ki is over 100 µM. Further, the Ki on hCA XII was found to be 0.44 µM.

In turn, `Cc1ccc(C=C2SC(=O)N(CC(=O)c3cc4cc(Br)ccc4oc3=O)C2=O)o1` [11d, 3–(2-(6-Bromo-2-oxo-2H-chromen-3-yl)-2-oxoethyl)-5-((5-methylfuran-2-yl)methylene)thiazolidine-2,4-dione] showed a melting point of 236 to 238 °C. Further, in data set [1], the IC50 was 1.65 ± 0.1 µM. Moreover, the Ki on hCA IX was 0.91 µM. For the same compound, the inhibition constant (Ki) at hCA I is over 100 µM. In addition, the Ki on hCA II was over 100 µM. The Ki at hCA XII turned out to be 0.82 µM.

One may read the Ki as the dissociation constant of the complex between target and ligand, obtained from inhibition or displacement. The term melting point denotes the temperature of the solid-liquid transition. The IC50 is the concentration that gives 50% inhibition. Read a high IC50 as weaker potency in that assay.
